From ChEMBL document CHEMBL1255421, “In vitro fungicidal activities of echinocandins against Candida metapsilosis, C. orthopsilosis, and C. parapsilosis evaluated by time-kill studies” (2010)
Converted amounts (≈) assume the structure as drawn. The source made the active and inactive calls. No cut-off for these calls is given here. Numbered stars: 1 amine (or outer) side, 2 acyl side, 3 side chain; on linkers, the order of the positions; unused ones are H or OH. Bridge positions count the residues as written; N and C are the ends. Square brackets hold non-standard residues; d marks the D form. Peptide text beside a SMILES is read from it. * marks the point of attachment. pTerphenylCO(4''-OnC5H11) = CCCCCOc1ccc(-c2ccc(-c3ccc(C(=O)*)cc3)cc2)cc1; Orn(4R-OH,5R-OH) = O=C([C@H](C[C@@H](O)[C@@H](O)N[*:3])N[*:1])[*:2]; hTyr(3S-OH,4S-OH) = N[C@H](C(=O)O)[C@H](O)[C@@H](O)c1ccc(O)cc1; Pro(3S-OH,4S-Me) = C[C@H]1CN[C@H](C(=O)O)[C@H]1O; Hyp = O=C(O)[C@@H]1C[C@@H](O)CN1

Tests used:
Candida metapsilosis [1] = assay: Antifungal activity against Candida metapsilosis clinical isolate bloodstream form assessed as time required for 99% reduction in fungal growth at 1 mg/L by time-kill assay; format: functional
Candida orthopsilosis [2] = assay: Antifungal activity against Candida orthopsilosis clinical isolate bloodstream form assessed as time required for 99% reduction in fungal growth at 32 mg/L by time-kill assay; format: functional
Candida orthopsilosis [3] = assay: Antifungal activity against Candida orthopsilosis clinical isolate bloodstream form assessed as time required for 90% reduction in fungal growth at 16 mg/L by time-kill assay; format: functional
Candida orthopsilosis [4] = assay: Antifungal activity against Candida orthopsilosis clinical isolate bloodstream form assessed as time required for 50% reduction in fungal growth at 1 mg/L by time-kill assay; format: functional
Candida orthopsilosis [5] = assay: Antifungal activity against Candida orthopsilosis clinical isolate bloodstream form assessed as time required for 50% reduction in fungal growth at 32 mg/L by time-kill assay; format: functional
Candida parapsilosis [6] = assay: Antifungal activity against Candida parapsilosis clinical isolate bloodstream form assessed as induction of fungal killing rate at 0.03 to 32 mg/L measured at 6 hrs by time-kill assay; format: functional, organism-based
Candida parapsilosis [7] = assay: Antifungal activity against Candida parapsilosis clinical isolate bloodstream form assessed as time required for 50% reduction in fungal growth at 16 mg/L by time-kill assay; format: functional
Candida metapsilosis [8] = assay: Antifungal activity against Candida metapsilosis clinical isolate bloodstream form assessed as time required for 50% reduction in fungal growth at 32 mg/L by time-kill assay; format: functional
Candida metapsilosis [9] = assay: Antifungal activity against Candida metapsilosis clinical isolate bloodstream form assessed as time required for 99% reduction in fungal growth at 4 mg/L by time-kill assay; format: functional
Candida metapsilosis [10] = assay: Antifungal activity against Candida metapsilosis clinical isolate bloodstream form assessed as time required for 99.9% reduction in fungal growth at 16 mg/L by time-kill assay; format: functional
Candida metapsilosis [11] = assay: Antifungal activity against Candida metapsilosis clinical isolate bloodstream form assessed as mild induction of fungal death at 0.03 to 32 mg/L after 6 hrs by time-kill assay; format: functional, organism-based
Candida metapsilosis [12] = assay: Antifungal activity against Candida metapsilosis clinical isolate bloodstream form assessed as time required for 99.9% reduction in fungal growth at 4 mg/L by time-kill assay; format: functional
Candida metapsilosis [13] = assay: Antifungal activity against Candida metapsilosis clinical isolate bloodstream form assessed as time required for 90% reduction in fungal growth at 4 mg/L by time-kill assay; format: functional
Candida metapsilosis [14] = assay: Antifungal activity against Candida metapsilosis clinical isolate bloodstream form assessed as time required for 99.9% reduction in fungal growth at 0.25 mg/L by time-kill assay; format: functional
Candida orthopsilosis [15] = assay: Antifungal activity against Candida orthopsilosis clinical isolate bloodstream form assessed as time required for 50% reduction in fungal growth at 4 mg/L by time-kill assay; format: functional
Candida metapsilosis [16] = assay: Antifungal activity against Candida metapsilosis clinical isolate bloodstream form assessed as time required for 50% reduction in fungal growth at 1 mg/L by time-kill assay; format: functional
Candida orthopsilosis [17] = assay: Antifungal activity against Candida orthopsilosis clinical isolate bloodstream form assessed as time required for 99.9% reduction in fungal growth at 1 mg/L by time-kill assay; format: functional
Candida orthopsilosis [18] = assay: Antifungal activity against Candida orthopsilosis clinical isolate bloodstream form assessed as mild induction of fungal death at 0.03 to 32 mg/L after 6 hrs by time-kill assay; format: functional, organism-based
Candida parapsilosis [19] = assay: Antifungal activity against Candida parapsilosis clinical isolate bloodstream form assessed as time required for 99% reduction in fungal growth at 4 mg/L by time-kill assay; format: functional
Candida orthopsilosis [20] = assay: Antifungal activity against Candida orthopsilosis clinical isolate bloodstream form assessed as time required for 50% reduction in fungal growth at 0.25 mg/L by time-kill assay; format: functional
Candida orthopsilosis [21] = assay: Fungicidal activity against Candida orthopsilosis isolate CP-131 bloodstream form by CLSI method; format: functional; conditions: Lodderomyces orthopsilosis
Candida orthopsilosis [22] = assay: Antifungal activity against Candida orthopsilosis clinical isolate bloodstream form assessed as time required for 99.9% reduction in fungal growth at 16 mg/L by time-kill assay; format: functional
Candida parapsilosis [23] = assay: Antifungal activity against Candida parapsilosis clinical isolate bloodstream form assessed as time required for 99% reduction in fungal growth at 16 mg/L by time-kill assay; format: functional
Candida metapsilosis [24] = assay: Fungicidal activity against Candida metapsilosis isolate ATC193 bloodstream form by CLSI method; format: functional; conditions: Lodderomyces metapsilosis, isolate ATC-193
Candida parapsilosis [25] = assay: Antifungal activity against Candida parapsilosis clinical isolate bloodstream form assessed as time required for 99% reduction in fungal growth at 32 mg/L by time-kill assay; format: functional
Candida metapsilosis [26] = assay: Fungicidal activity against Candida metapsilosis isolate CP-132 bloodstream form by CLSI method; format: functional; conditions: Lodderomyces metapsilosis
Candida metapsilosis [27] = assay: Antifungal activity against Candida metapsilosis clinical isolate bloodstream form assessed as time required for 99% reduction in fungal growth at 0.25 mg/L by time-kill assay; format: functional
Candida metapsilosis [28] = assay: Antifungal activity against Candida metapsilosis clinical isolate bloodstream form assessed as time required for 99% reduction in fungal growth at 16 mg/L by time-kill assay; format: functional
Candida metapsilosis [29] = assay: Antifungal activity against Candida metapsilosis clinical isolate bloodstream form assessed as induction of fungal killing rate at 0.03 to 32 mg/L measured at 6 hrs by time-kill assay; format: functional, organism-based
Candida orthopsilosis [30] = assay: Antifungal activity against Candida orthopsilosis clinical isolate bloodstream form assessed as time required for 90% reduction in fungal growth at 4 mg/L by time-kill assay; format: functional
Candida orthopsilosis [31] = assay: Antifungal activity against Candida orthopsilosis clinical isolate bloodstream form assessed as time required for 99% reduction in fungal growth at 0.25 mg/L by time-kill assay; format: functional
Candida metapsilosis [32] = assay: Antifungal activity against Candida metapsilosis clinical isolate bloodstream form assessed as time required for 99% reduction in fungal growth at 32 mg/L by time-kill assay; format: functional
Candida metapsilosis [33] = assay: Antifungal activity against Candida metapsilosis clinical isolate bloodstream form assessed as time required for 50% reduction in fungal growth at 4 mg/L by time-kill assay; format: functional
Candida parapsilosis [34] = assay: Antifungal activity against Candida parapsilosis clinical isolate bloodstream form assessed as time required for 90% reduction in fungal growth at 4 mg/L by time-kill assay; format: functional
Candida orthopsilosis [35] = assay: Antifungal activity against Candida orthopsilosis clinical isolate bloodstream form assessed as time required for 99.9% reduction in fungal growth at 4 mg/L by time-kill assay; format: functional
Candida metapsilosis [36] = assay: Antifungal activity against Candida metapsilosis clinical isolate bloodstream form assessed as time required for 90% reduction in fungal growth at 16 mg/L by time-kill assay; format: functional
Candida parapsilosis [37] = assay: Antifungal activity against Candida parapsilosis clinical isolate bloodstream form assessed as time required for 50% reduction in fungal growth at 4 mg/L by time-kill assay; format: functional
Candida parapsilosis [38] = assay: Antifungal activity against Candida parapsilosis clinical isolate bloodstream form assessed as time required for 90% reduction in fungal growth at 0.25 mg/L by time-kill assay; format: functional
Candida parapsilosis [39] = assay: Antifungal activity against Candida parapsilosis clinical isolate bloodstream form assessed as time required for 90% reduction in fungal growth at 32 mg/L by time-kill assay; format: functional
Candida metapsilosis [40] = assay: Antifungal activity against Candida metapsilosis clinical isolate bloodstream form assessed as time required for 90% reduction in fungal growth at 0.25 mg/L by time-kill assay; format: functional
Candida orthopsilosis [41] = assay: Fungicidal activity against Candida orthopsilosis isolate CP-151 bloodstream form by CLSI method; format: functional; conditions: Lodderomyces orthopsilosis
Candida parapsilosis [42] = assay: Antifungal activity against Candida parapsilosis clinical isolate bloodstream form assessed as time required for 99.9% reduction in fungal growth at 16 mg/L by time-kill assay; format: functional
Candida parapsilosis [43] = assay: Fungicidal activity against Candida parapsilosis isolate CP-300 bloodstream form by CLSI method; format: functional; conditions: Lodderomyces parapsilosis

CCCCCOc1ccc(-c2ccc(-c3ccc(C(=O)N[C@H]4C[C@@H](O)[C@@H](O)NC(=O)[C@@H]5[C@@H](O)[C@@H](C)CN5C(=O)[C@H]([C@@H](C)O)NC(=O)[C@H]([C@H](O)[C@@H](O)c5ccc(O)cc5)NC(=O)[C@@H]5C[C@@H](O)CN5C(=O)[C@H]([C@@H](C)O)NC4=O)cc3)cc2)cc1 [ANIDULAFUNGIN] ({pTerphenylCO(4''-OnC5H11)}-[Orn(4R-OH,5R-OH)]T[Hyp][hTyr(3S-OH,4S-OH)]T[Pro(3S-OH,4S-Me)]; lactam 1-C)
Time (Candida metapsilosis [1]): 10.44 h | Time (Candida orthopsilosis [2]): 9.81 h | Time (Candida orthopsilosis [3]): 6.24 h | Time (Candida orthopsilosis [4]): 6.36 h | Time (Candida orthopsilosis [5]): 1.48 h | Activity (Candida parapsilosis [6]): inactive | Time (Candida parapsilosis [7]): 7.84 h | Time (Candida metapsilosis [8]): 1.41 h | Time (Candida metapsilosis [9]): 15.89 h | Time (Candida metapsilosis [10]): 15.03 h | Activity (Candida metapsilosis [11]): Active | Time (Candida metapsilosis [12]): 23.83 h | Time (Candida metapsilosis [13]): 7.94 h | Time (Candida metapsilosis [14]): 77.12 h | Time (Candida orthopsilosis [15]): 2.73 h | Time (Candida metapsilosis [16]): 1.57 h | Time (Candida orthopsilosis [17]): >48 h | Activity (Candida orthopsilosis [18]): Active | Time (Candida parapsilosis [19]): >48 h | Time (Candida orthopsilosis [20]): 17.4 h | MIC (Candida orthopsilosis [21]): 0.25 µg/mL (≈ 0.219 µM) | Time (Candida orthopsilosis [22]): 18.73 h | Time (Candida parapsilosis [23]): >48 h | MIC (Candida metapsilosis [24]): 0.03 µg/mL (≈ 0.0263 µM) | Time (Candida parapsilosis [25]): 27.89 h | MIC (Candida metapsilosis [26]): 0.06 µg/mL (≈ 0.0526 µM) | Time (Candida metapsilosis [27]): 51.41 h | Time (Candida metapsilosis [28]): 10.02 h | Activity (Candida metapsilosis [29]): inactive | Time (Candida orthopsilosis [30]): 9.08 h | Time (Candida orthopsilosis [31]): >48 h | Time (Candida metapsilosis [32]): 9.37 h | Time (Candida metapsilosis [33]): 2.39 h | Time (Candida parapsilosis [34]): >48 h | Time (Candida orthopsilosis [35]): 27.25 h | Time (Candida metapsilosis [36]): 5.01 h | Time (Candida parapsilosis [37]): 26.41 h | Time (Candida parapsilosis [38]): inactive | Time (Candida parapsilosis [39]): 13.95 h | Time (Candida metapsilosis [40]): 25.71 h | MIC (Candida orthopsilosis [41]): 0.5 µg/mL (≈ 0.438 µM) | Time (Candida parapsilosis [42]): >48 h | MIC (Candida parapsilosis [43]): 0.5 µg/mL (≈ 0.438 µM)
